Reference: patent publication US20140274683A1, “COMPOSITIONS AND METHODS FOR REPELLING POLLINATING INSECTS AND PROTECTING PLANTS AND CROPS AGAINST INSECTS AND/OR NEMATODES” (Bayer CropScience LP, priority 2013, published 2014)

Columns and labels:
Honeybees = experiment: Honeybee repulsion experiment at feeding stations with 50% sucrose; format: in vivo; settings: 2% by weight in combination with 50% sucrose, feeding station
Procedure: FIG. 1 describes the feeding station arrangement (A and B) for the honeybee repulsion experiments described herein. As set forth in FIG. 1, panel (A) sets forth the bee cage positions on the left portion of panel (A) with the randomized feeding station positions on the right portion of panel (A). Panel (B) sets forth an alignment of the randomized feeding station positions with a distance of two meters between feeding stations. A total of eight feeding stations were evaluated at a ten meter distance in front of the respective bee hives. The feeding stations were placed two meters apart from one another.
Honeybees were trained to deep feeders (eight positions), each containing a 50% sucrose solution for one day. After the honeybees were trained to each feeder, the 50% sucrose feeder at randomized positions 1-8 was replaced with a shallow feeder containing a combination of repelling compounds and a 50% sucrose solution according to Table 5. In accordance with FIGS. 5 and 6, 2% by weight of Camphor oil (T4), Ajowan oil (T5), Camphor powder (T6), Rosemary oil (T7), and 2-Decanone (T8) in combination with a 50% sucrose treatment were added to feeders on day two.
Table 5 describes active agents evaluated for bee repulsion and their randomized feeding station positions. As described in Table 5, T1 (control), T2 (control), T3 (control), T4 (Camphor oil), T5 (Ajowan oil), T6 (Camphor powder), T7 (Rosemary oil), and T8 (2-Decanone).
FIG. 5 evaluates the number of bees visiting a respective feed station over a time interval. FIG. 6 sets forth the mean number of honeybees visiting feeding station over a period of four hours.

[1] = Stability test of Poncho combined with Eugenol, clothianidin content by HPLC; format: physicochemical; settings: up to 54° C. for seven days
Procedure: Table 6 describes a stability test with a combination of Eugenol and Poncho evaluated at room temperature, 40° C., and 54° C. at zero time, 3 days, and 7 days as confirmed by high performance liquid chromatography (HPLC).

[2] = Stability test of Poncho 600 combined with α-terpineol, clothianidin content by HPLC; format: physicochemical; settings: combined with alpha-terpineol, up to 54° C. for eight days
Procedure: Table 7 describes a stability test with a combination of α-terpineol and Poncho 600 evaluated at room temperature, 40° C., and 54° C. at zero time, 2 days, and 8 days as confirmed by HPLC.

SMILES	Honeybee repellency over the 4 hour assessment period (Honeybees; 4 hour assessment period)	Honeybee repellency at 24 hours (Honeybees)	Honeybee repellency at 24 hours (Honeybees; listed as 2-decanone)	Chemical stability of clothianidin content in Poncho [1]	Chemical stability of clothianidin content in Poncho [2]
CCCCCCCCC(C)=O [Compound 2-Decanone, 2-decanone]	highly repellent	exhibited repellency	still repellent		
CN/C(=N\[N+](=O)[O-])NCc1cnc(Cl)s1 [clothianidin]				exhibited chemical stability	exhibited chemical stability
